The text below walks through data of PMC3262960 (ACS Chemical Biology, 2011).

Read-outs that look alike come from different tables or passages of the source.

For assay [1] the following is noted: animal models of RA, UC, and neuron degeneration; cited from earlier work.
The target in assay [2] is T1, PAD4 (Homo sapiens, UniProt Q9UM07). Briefly: PAD4 inhibition, IC50 determination.
Assay [3] deals with T2, PAD2 (Homo sapiens, UniProt Q9Y2J8). Briefly: PAD2 inhibition, IC50 determination. Particulars: read-out: IC50 PAD2. The assay is classed as biochemical.
Assay [4] concerns PAD4 R639Q mutant. Briefly: IC50 with PAD4 R639Q mutant. Particulars: relative to wild type PAD4.
The test system of assay [5] is PAD4 R374Q mutant. Briefly: IC50 with PAD4 R374Q mutant. As to conditions: relative to wild type PAD4.
The target of assay [6] is T1, PAD4. Briefly: Dialysis of PAD4•inactivator complex. The assay is classed as biochemical. Particulars: excess inhibitor, 20 h of dialysis.
For assay [7], the system named is PAD4 Q346A mutant. Briefly: IC50 with PAD4 Q346A mutant. As to conditions: relative to wild type PAD4.
Assay [8] concerns the target T3, PAD3 (Homo sapiens, UniProt Q9ULW8).
T3 sequence (Q9ULW8 1-664): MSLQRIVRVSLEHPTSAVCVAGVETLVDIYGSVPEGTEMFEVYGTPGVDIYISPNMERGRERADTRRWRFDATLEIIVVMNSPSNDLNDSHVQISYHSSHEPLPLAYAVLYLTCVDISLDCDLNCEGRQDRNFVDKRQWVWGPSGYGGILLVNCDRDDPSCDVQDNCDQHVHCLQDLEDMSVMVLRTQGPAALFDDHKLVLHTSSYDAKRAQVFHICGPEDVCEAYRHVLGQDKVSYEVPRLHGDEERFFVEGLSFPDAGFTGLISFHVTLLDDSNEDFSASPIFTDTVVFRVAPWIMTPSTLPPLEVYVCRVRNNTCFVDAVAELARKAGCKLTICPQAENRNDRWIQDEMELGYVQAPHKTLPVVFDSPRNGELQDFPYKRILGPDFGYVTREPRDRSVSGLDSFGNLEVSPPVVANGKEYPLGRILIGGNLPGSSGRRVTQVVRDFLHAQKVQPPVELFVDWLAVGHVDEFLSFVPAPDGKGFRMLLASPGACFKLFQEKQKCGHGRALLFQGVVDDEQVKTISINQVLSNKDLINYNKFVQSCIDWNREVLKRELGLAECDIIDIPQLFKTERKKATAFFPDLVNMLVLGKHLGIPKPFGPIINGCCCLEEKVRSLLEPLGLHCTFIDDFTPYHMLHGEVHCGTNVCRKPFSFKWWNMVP
Briefly: PAD3 inhibition, IC50 determination. The class given is biochemical. Particulars: read-out: IC50 PAD3.

Assay [9] has as its target T1, PAD4. Briefly: Substrate protection experiments. The assay is classed as biochemical. Particulars: two different concentrations of substrate.
For assay [10], the target named is T4, PAD1 (Homo sapiens, UniProt Q9ULC6).
T4 sequence (Q9ULC6 1-663): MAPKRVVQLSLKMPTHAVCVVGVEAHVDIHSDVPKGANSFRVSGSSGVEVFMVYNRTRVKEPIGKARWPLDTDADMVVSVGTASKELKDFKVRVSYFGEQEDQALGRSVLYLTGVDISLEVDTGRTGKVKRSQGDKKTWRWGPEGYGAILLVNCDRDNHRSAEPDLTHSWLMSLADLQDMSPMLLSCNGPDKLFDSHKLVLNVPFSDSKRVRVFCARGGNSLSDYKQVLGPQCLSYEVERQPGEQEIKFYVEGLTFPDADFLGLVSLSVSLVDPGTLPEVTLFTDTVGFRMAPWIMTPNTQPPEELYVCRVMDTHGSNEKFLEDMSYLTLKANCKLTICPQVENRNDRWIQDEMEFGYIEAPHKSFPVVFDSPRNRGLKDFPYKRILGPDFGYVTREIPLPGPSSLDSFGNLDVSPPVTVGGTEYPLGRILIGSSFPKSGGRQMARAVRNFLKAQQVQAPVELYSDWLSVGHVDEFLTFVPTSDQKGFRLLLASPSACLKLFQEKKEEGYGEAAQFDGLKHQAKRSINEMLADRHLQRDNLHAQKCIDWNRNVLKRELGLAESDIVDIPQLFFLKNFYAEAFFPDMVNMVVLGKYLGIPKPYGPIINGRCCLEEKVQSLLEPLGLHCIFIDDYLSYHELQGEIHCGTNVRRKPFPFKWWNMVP
Briefly: PAD1 inhibition, IC50 determination. The assay is classed as biochemical. As to conditions: read-out: IC50 PAD1.

The target of assay [11] is T1, PAD4. Briefly: Substrate activity with PAD4.
Assay [12] has as its target T4, PAD1. Briefly: Substrate activity with PAD1.
For assay [13], the target named is T2, PAD2. Briefly: Substrate activity with PAD2.
Assay [14] has as its target T3, PAD3. Briefly: Substrate activity with PAD3.
Assay [15] addresses T4, PAD1. As to conditions: read-out: IC50 PAD1; first generation inhibitors; cited from earlier work.
In assay [16] the target is T3, PAD3. As to conditions: read-out: IC50 PAD3; first generation inhibitors; cited from earlier work.

T1 sequence (Q9UM07 whole entry): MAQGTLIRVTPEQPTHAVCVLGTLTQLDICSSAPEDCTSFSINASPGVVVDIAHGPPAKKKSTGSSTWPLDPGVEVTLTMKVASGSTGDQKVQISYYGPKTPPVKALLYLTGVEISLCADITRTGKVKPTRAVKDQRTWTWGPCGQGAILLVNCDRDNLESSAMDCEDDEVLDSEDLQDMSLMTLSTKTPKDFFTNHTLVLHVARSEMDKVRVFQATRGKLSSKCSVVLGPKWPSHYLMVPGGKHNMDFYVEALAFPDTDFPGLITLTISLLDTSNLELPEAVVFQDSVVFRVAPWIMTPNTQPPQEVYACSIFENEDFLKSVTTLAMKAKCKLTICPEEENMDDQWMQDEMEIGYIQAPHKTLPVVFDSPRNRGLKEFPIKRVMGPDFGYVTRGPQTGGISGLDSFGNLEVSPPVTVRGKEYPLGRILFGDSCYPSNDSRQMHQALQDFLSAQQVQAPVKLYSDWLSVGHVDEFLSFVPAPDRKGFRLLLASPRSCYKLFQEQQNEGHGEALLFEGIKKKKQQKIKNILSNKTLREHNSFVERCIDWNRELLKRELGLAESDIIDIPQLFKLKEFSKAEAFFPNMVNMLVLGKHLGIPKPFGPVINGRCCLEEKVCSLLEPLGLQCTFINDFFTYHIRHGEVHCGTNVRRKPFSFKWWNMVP
T2 sequence (Q9Y2J8 whole entry): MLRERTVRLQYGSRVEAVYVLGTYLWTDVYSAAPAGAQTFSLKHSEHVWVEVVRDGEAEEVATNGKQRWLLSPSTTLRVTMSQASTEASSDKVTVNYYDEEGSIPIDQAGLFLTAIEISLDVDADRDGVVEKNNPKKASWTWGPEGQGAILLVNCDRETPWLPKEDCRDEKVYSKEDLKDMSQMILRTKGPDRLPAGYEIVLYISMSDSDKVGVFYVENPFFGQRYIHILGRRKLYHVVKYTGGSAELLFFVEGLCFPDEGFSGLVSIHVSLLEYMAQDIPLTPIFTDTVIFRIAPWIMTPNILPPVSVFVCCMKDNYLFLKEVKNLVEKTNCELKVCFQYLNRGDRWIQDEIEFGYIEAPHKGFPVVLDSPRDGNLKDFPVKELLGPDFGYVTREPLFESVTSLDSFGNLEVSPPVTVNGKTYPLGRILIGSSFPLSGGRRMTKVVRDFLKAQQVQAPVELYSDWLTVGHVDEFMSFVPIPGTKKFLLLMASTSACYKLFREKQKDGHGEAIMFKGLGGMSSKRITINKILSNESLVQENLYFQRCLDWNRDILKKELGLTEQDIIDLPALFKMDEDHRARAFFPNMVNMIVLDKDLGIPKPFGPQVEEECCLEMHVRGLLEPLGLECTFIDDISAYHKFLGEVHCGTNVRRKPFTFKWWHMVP

As for `N=C(CCl)NCCC[C@H](NC(=O)c1ccccc1)C(N)=O` [Cl-amidine, N-alpha-benzoyl-N5-(2-chloro-1-iminoethyl)-L-ornithine amide], the “effect on disease severity in animal models” value in [1] is “reduces disease severity”.

Regarding `CC(=O)N[C@H](C(=O)N[C@@H](CC(=O)O)C(=O)N[C@@H](CCCN=C(N)CF)C(N)=O)[C@@H](C)O` [TDFA, Thr-Asp-F-amidine], in [2], the “selectivity for PAD4 relative to the other PADs, based on IC50 values” is reported as ≥ 4 fold. For the same compound, in assay [2] (PAD4), the “enhancement in potency relative to F-amidine (IC50)” value is listed as ~ 10 fold. Moreover, the 50% inhibitory concentration (IC50) was found to be 2.3 ± 0.2 µM in [2] (read-out: IC50 PAD4), 71 ± 4.4 µM in [3], 26 ± 7.4 µM in assay [8] and 8.5 ± 0.8 µM in assay [10]. The “increase of IC50 with R639Q mutant” value in assay [4] is 2.9 fold. In [5], the “increase of IC50 with R374Q mutant” value stood at 5.2 fold. Moreover, the “recovery of PAD4 activity after dialysis” value in assay [6] is recorded as “no recovery of activity”. Further, the “increase of IC50 with Q346A mutant” value in assay [7] is 1.9 fold. The “rates of inactivation at the higher concentration of substrate” value in assay [9] was “considerably lower”.

Consider “Ac-Threonine-Aspartate-Arginine-NH2 [Ac-TDR-NH2]”, for which the “substrate quality for PAD4” value in assay [11] is “excellent substrate”. Further, in assay [12], the “substrate quality for PAD1” value is recorded as “excellent substrate”. Also, the “substrate quality for PAD2” value in assay [13] is reported as “relatively poor”. Besides, the “substrate quality for PAD3” value in [14] is “relatively poor”.

Regarding `NC(=O)[C@H](CCCN=C(N)CF)NC(=O)c1ccccc1` [F-amidine], the IC50 in assay [15] is 30 ± 1.3 µM; in assay [16] it was ≥ 350 µM.
